Laboratory results: patent US11419834B2, “Methods for treating diseases or infections caused by or associated with H. pylori using a halogenated salicylanilide” (Rhode Island Hospital, priority 2019, dated 2022)
≈ marks a conversion by molar mass, not a printed value.

Legend:
[1] = test system: H. pylori (strain 60190) adhered to AGS cells; assay: Adhesion of H. pylori to AGS cells; format: cell-based, Helicobacter pylori; settings: niclosamide 2×MIC, 20 hours, MOI=100
Procedure: (§1) The AGS (Gastric adenocarcinoma cell lines) cell line was used to examine inhibition of adhesion and invasion of H. pylori (strain 60190) by niclosamide, as described by Schmitt et al. (Front Cell Infect Microbiol. 2013; 3:93). The AGS cells were grown in Dulbecco's Modified Eagle Medium (DMEM, ex. Gibco), supplemented with 10% fetal bovine serum (Gibco) and 1% penicillin/streptomycin (Gibco) and maintained at 37° C. in 5% C02. Then, 5×10^5 cells in antibiotic and serum-free DMEM were seeded in 6-well plates 24 hours prior to infection. H. pylori bacteria at a multiplicity of infection (MOI)=100 were added and allowed to adhere to the surface of the AGS cells. Planktonic bacteria were removed after 2 hours and DMEM with niclosamide (2×MIC) was then added to the wells containing the AGS. The mammalian cells were lysed by 0.1% saponin after 20 hours of incubation and the adhered bacteria were then serially diluted, plated in Brucella agar supplemented with 10% FBS, and incubated as described above. A control arm of DMSO and a comparator using amoxicillin at a concentration of 0.1 μg/mL (10×MIC) was also assessed. […]

[2] = test system: AGS cells co-cultured with H. pylori (strain 60190); assay: Light microscopy imaging for vacuolation; format: cell-based; settings: sub-MIC (0.2 μg/mL), 24 h, MOI of 100
Procedure: H. Pylon bacteria secrete VacA toxin via a type V secretion system (Galmiche et al. Gut Microbes. 2010 November-December; 1(6):392-5. 44). This toxin binds to host gastric epithelial cells and its internalization leads to vacuolation, characterized by the accumulation of large vacuoles in gastric epithelial cells during the infection process. AGS cells were harvested and seeded into a 6 well plate at a concentration of 5×10^5 cells, 24 h before experimentation. H. Pylon bacteria (strain 60190) were harvested and washed with sterile PBS and co-cultured with AGS at a MOI of 100. After incubation for 24 h, the cells were washed, magnified under a microscope, and examined for vacuolation. […] After 3 days, the bacteria were washed and treated with TRIZOL (Invitrogen, Carlsbad, Calif., USA), and the RNA concentration was determined using a NanoVue Plus spectrophotometer (GE Healthcare, Fairfield, Conn., USA). PCR amplifications were performed, and the products were analysed by gel electrophoresis (1.0% agarose) containing SYBR® Safe (Invitrogen). Gel images were captured and analysed using the Quantity One System.

[3] = test system: H. pylori bacteria (strain 60190); assay: Multi-step mutation frequency (serial passage resistance study); format: cell-based, Helicobacter pylori
Procedure: To determine whether H. pylori can develop resistance against niclosamide, bacterial cells were suspended in MHB with 10% FBS at OD600=0.06 in the presence of serially diluted niclosamide and incubated, as described in the antibiotic susceptibility assays sub-section. The standard antibiotics amoxicillin and clarithromycin were used as controls. From the highest drug concentration allowing visible growth at sub-MIC concentration, aliquots were diluted (1:40) into fresh medium. These were used to inoculate the second set of serial drug dilutions as described by Dalhoff et al. (Clin Infect Ds. 2001 Mar. 15; 32 Suppl, 1:S16-22). After a 3-day incubation, H. pylori bacteria (strain 60190) were passaged sequentially over 30 days and the OD was recorded.

[4] = test system: AGS cells invaded by H. pylori; assay: Invasion, gentamicin protection assay; format: cell-based, Helicobacter pylori; settings: 2×MIC, 0.5 μg/mL, 20 hours, AGS cell lines
Procedure: as §1

[5] = test system: H. Pylori 43504; assay: Broth microdilution assay, MIC; format: cell-based; settings: Helicobacter pylori; strain H. Pylori 43504
[6] = test system: H. pylori strain 60190; assay: Minimum bactericidal concentration (plating from MIC assay); format: cell-based, Helicobacter pylori; settings: Helicobacter pylori; H. pylori strain 60190; read-out: MBC
[7] = test system: H. pylori cells (strain 60190); assay: Motility assay in soft agar; format: cell-based, Helicobacter pylori; settings: for H. pylori motility (swarming) versus concentration: niclosamide from 0.10 to 0.20 μg/mL (75-200 ng/mL in soft agar)
[8] = test system: H. Pylori 49503; assay: Broth microdilution assay, MIC; format: cell-based; settings: Helicobacter pylori; strain H. Pylori 49503

O=C(Nc1ccc([N+](=O)[O-])cc1Cl)c1cc(Cl)ccc1O [Niclosamide, niclosamide]
reduction of CFU/mL counts of adhered bacteria [1]: 3 log10
effect on vacuolation of AGS cells [2]: prevented vacuolation
development of H. pylori resistance ([3]; 30 day resistance studies): no H. pylori resistance to niclosamide developed
change in MIC through at least 10 passages ([3]; at least 10 passages): remained constant
increase in MIC during continuous passage ([3]; passaged sequentially over 30 days): remained unchanged
reduction of intracellular CFU [4]: 3 log10 CFU
MIC [5]: 0.125 µg/mL (≈ 0.382 µM)
MBC [6]: 0.5 µg/mL (≈ 1.53 µM)
H. pylori motility (swarming) versus concentration [7]: impeded H. Pylon swarming movement in a dose-dependent manner
H. pylori motility (swarming) versus concentration ([7]; listed as niclosamide): decreased in a dose-dependent manner
H. pylori motility ([7]; sub-MIC (0.2 μg/mL)): abated
MIC [8]: 0.25 µg/mL (≈ 0.764 µM)
